Reference: patent publication US20060004104A1, “Methods and compositions for treatment of cancer pain” (priority 2002, published 2006)

Tests used:
Type in all cases: in vivo
[1] = system: intra-tibial MRMT-1 rat mammary gland carcinoma cells (bone cancer pain); assay: Rat model of bone cancer pain: weight-bearing difference (hind limb sparing); details: for weight-bearing difference between contralateral and ipsilateral paw: measured 1 hour after drug administration
Procedure: Adult female rats are given intra-tibial injections of MRMT-1 rat mammary gland carcinoma cells (3 μl, 10^7 cells/ml). These animals gradually develop mechanical hyperalgesia, mechanical allodynia (skin sensitivity to non-noxious stimuli) and hind limb sparing, beginning on day 12-14 following cell injection. […] Intra-tibial inoculation of MRMT-1 cells induces a time-dependent hypersensitivity in the ipsilateral limb, measured as a shift in body weight to the contralateral limb. The increase in weight-bearing difference between contralateral and ipsilateral paw (weight shift from the affected to the unaffected limb) is evident by day 14 post-inoculation and continues to increase until day 20. […] This effect is significant for COX189 on days 10, 14, 17 and 20 as well as for valdecoxib (30 mg/kg, p.o.) on day 20. […] Lower doses are not studied. […] The treatments induces a progressive and long-lasting reduction in hypersensitivity, since the weight-bearing difference is also attenuated when measured 1 h before the first daily treatment. This preventative effect reaches significant levels for all three treatments on days 14 and 17. There is no significant difference between the effects measured before and after COX189 administration on each day for any individual treatment.

[2] = system: intra-tibial MRMT-1 rat mammary gland carcinoma cells (bone cancer pain); assay: Rat model of bone cancer pain: mechanical allodynia (static and dynamic); details: day 20; for static allodynia (punctuate stimulus), ipsilateral paw: 90 minutes after the last administration
Procedure: Adult female rats are given intra-tibial injections of MRMT-1 rat mammary gland carcinoma cells (3 μl, 10^7 cells/ml). These animals gradually develop mechanical hyperalgesia, mechanical allodynia (skin sensitivity to non-noxious stimuli) and hind limb sparing, beginning on day 12-14 following cell injection.

[3] = system: intra-tibial MRMT-1 rat mammary gland carcinoma cells (bone cancer); assay: Rat model of bone cancer pain: radiologically observed structural changes and bone mineral density
Procedure: Adult female rats are given intra-tibial injections of MRMT-1 rat mammary gland carcinoma cells (3 μl, 10^7 cells/ml).

[4] = 30 mg/kg repeated administration, day 20

SMILES	weight-bearing difference between contralateral and ipsilateral paw ([1]; 10 mg/kg p.o. repeated from day 10 post-inoculation, days 14, 17 and 20)	weight-bearing difference between contralateral and ipsilateral paw ([1]; 30 mg/kg p.o. repeated from day 10 post-inoculation, days 14, 17 and 20)	dose-dependence of the effect on weight-bearing difference ([1]; 10 versus 30 mg/kg p.o.)	static allodynia (punctuate stimulus), ipsilateral paw ([2]; 10 mg/kg p.o. repeated)	dynamic allodynia (light stroking of the skin), ipsilateral paw ([2]; 30 mg/kg p.o. repeated)	static allodynia (punctuate stimulus), ipsilateral paw ([2]; 30 mg/kg p.o. repeated)	radiologically observed structural changes ([3]; 10 mg/kg repeated administration, day 20)	loss of bone mineral density compared to vehicle treated animals [3, 4]	radiologically observed structural changes [3, 4]	radiologically observed structural changes in an animal model of bone cancer pain ([3]; summary statement, no dose given)	weight-bearing difference between contralateral and ipsilateral paw ([1]; 30 mg/kg p.o. repeated, day 20)
Cc1ccc(Nc2c(F)cccc2Cl)c(CC(=O)O)c1 [COX189, 5-methyl-2-(2′-chloro-6′-fluoroanilino)-phenylacetic acid]	significantly attenuates	significantly attenuates	not dose-dependent	significantly reverses	reaches statistical significance	significantly reverses	significantly inhibits	significantly inhibit	significantly inhibits	inhibit	
Cc1onc(-c2ccccc2)c1-c1ccc(S(N)(=O)=O)cc1 [valdecoxib, reference compound]						significantly reverses					significant
